Where a SMILES comes first, the peptide text is derived from it.

Test in all cases: biochemical
Assay type in all cases: binding

Test [1] deals with HLA A*3201 (Homo sapiens, UniProt P04439, A270S/D101S/D185E/E176V/E277Q/F133L/G103R/G107R/G231S/H175R/I121M/I218V/I322F/K168Q/L105A/L300P/L318F/M331R/P208A/P217A/Q94H/R106L/R138Q/S129P/T104I/T323A/T345S/V100E/V321M/V358M).
The target in test [2] is HLA B*1501 (Homo sapiens, UniProt P01889, A329T/A93T/A95T/C349S/D201E/D98Y/E187L/E204Q/E69M/E70A/K202T/N87E/Q94N/R155S/R180W/S121R/S35A/S48A/V306I/V36M/Y140S/Y91S).
The target of test [3] is HLA B*1503 (Homo sapiens, UniProt P01889, A329T/A93T/A95T/C349S/D201E/D98Y/E187L/E204Q/K202T/N87E/Q94N/R155S/R180L/S121R/S35A/V306I/V36M/Y140S/Y91S).
In test [4] the target is HLA A*3001 (Homo sapiens, UniProt P04439, D140H/D185E/E176W/F33S/G80R/H175R/K168Q/R138E/R41S).
Sequence of HLA A*3001 (P04439 25-365 limits assumed, stated change not applied): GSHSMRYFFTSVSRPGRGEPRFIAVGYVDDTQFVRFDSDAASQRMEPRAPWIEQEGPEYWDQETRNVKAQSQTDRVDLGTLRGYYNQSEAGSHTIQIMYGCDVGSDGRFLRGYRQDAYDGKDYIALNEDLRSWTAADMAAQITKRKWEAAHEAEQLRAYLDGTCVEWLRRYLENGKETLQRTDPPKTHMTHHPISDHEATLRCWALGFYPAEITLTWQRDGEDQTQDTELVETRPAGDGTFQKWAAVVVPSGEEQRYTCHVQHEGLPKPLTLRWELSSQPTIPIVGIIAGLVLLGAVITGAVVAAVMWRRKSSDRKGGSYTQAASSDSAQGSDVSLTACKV

The IC50 is the point on the concentration scale where inhibition reaches its midpoint. A lower IC50 goes with higher potency. For `CC[C@H](C)[C@H](NC(=O)[C@@H](NC(=O)[C@@H](N)CC(C)C)[C@@H](C)O)C(=O)N[C@@H](C)C(=O)N[C@@H](CS)C(=O)N[C@@H](CCCNC(=N)N)C(=O)N[C@H](C(=O)N[C@@H](CO)C(=O)N[C@@H](CC(C)C)C(=O)O)C(C)C` [3102.0376] (H-LTIACRVSL-OH), the IC50 in test [1] is 96 nM; in test [2], 76 nM.
Consider `CC[C@H](C)[C@H](N)C(=O)N[C@@H](CCSC)C(=O)N[C@@H](Cc1ccccc1)C(=O)N[C@@H](CO)C(=O)N[C@@H](CCCCN)C(=O)N[C@@H](CO)C(=O)N[C@@H](CC(C)C)C(=O)N[C@@H](CC(N)=O)C(=O)N[C@@H](Cc1ccccc1)C(=O)O` [3102.1204] (H-IMFSKSLNF-OH), for which the IC50 in test [1] is 15 nM; in test [3], 0.23 nM.
As for `CC[C@H](C)[C@H](NC(=O)[C@H](CCCCN)NC(=O)[C@H](Cc1ccc(O)cc1)NC(=O)[C@H](Cc1ccccc1)NC(=O)[C@H](CCSC)NC(=O)[C@H](Cc1ccc(O)cc1)NC(=O)[C@H](CCC(N)=O)NC(=O)[C@@H](N)CCCNC(=N)N)C(=O)N[C@@H](Cc1ccccc1)C(=O)O` [3102.1055] (H-RQYMFYKIF-OH), the IC50 in test [1] was found to be 19 nM; in test [3], 0.07 nM.
Consider `CC[C@H](C)[C@H](NC(=O)[C@H](C)NC(=O)[C@H](Cc1ccccc1)NC(=O)[C@H](CCC(N)=O)NC(=O)[C@@H](N)Cc1c[nH]c2ccccc12)C(=O)N[C@@H](Cc1c[nH]cn1)C(=O)N[C@@H](Cc1ccc(O)cc1)C(=O)N[C@@H](CO)C(=O)N[C@@H](Cc1ccccc1)C(=O)O` [3102.1096] (H-WQFAIHYSF-OH), for which the IC50 in test [1] is 2.8 nM; in test [3], 4.5 nM.
`CC[C@H](C)[C@H](N)C(=O)N[C@H](C(=O)N[C@@H](Cc1ccccc1)C(=O)N[C@@H](CCSC)C(=O)N[C@@H](CC(N)=O)C(=O)N[C@@H](CC(C)C)C(=O)N[C@@H](Cc1ccc(O)cc1)C(=O)N[C@@H](CO)C(=O)N[C@@H](Cc1ccccc1)C(=O)O)[C@@H](C)CC` [3102.1328] (H-IIFMNLYSF-OH): the figures for the IC50 in test [1] and in test [3] were 1.3 nM and 11 nM, respectively.
For `CC[C@H](C)[C@H](N)C(=O)N[C@@H](CCSC)C(=O)N[C@@H](Cc1ccccc1)C(=O)N[C@@H](C)C(=O)N[C@@H](CCCCN)C(=O)N[C@H](C(=O)N[C@@H](CC(C)C)C(=O)N[C@@H](CC(=O)O)C(=O)N[C@@H](Cc1ccccc1)C(=O)O)[C@@H](C)O` [3102.1190] (H-IMFAKTLDF-OH), in that order: 6.8 nM and 0.31 nM.
Consider `CC[C@H](C)[C@H](NC(=O)[C@H](Cc1ccc(O)cc1)NC(=O)[C@H](Cc1c[nH]c2ccccc12)NC(=O)[C@H](CCSC)NC(=O)[C@@H](N)CO)C(=O)N1CCC[C@H]1C(=O)N[C@@H](CC(N)=O)C(=O)N[C@H](C(=O)N[C@@H](Cc1ccccc1)C(=O)O)C(C)C` [3102.1192] (H-SMWYIPNVF-OH), for which the results for the IC50 in test [1] and in test [3] were 5.1 nM and 0.72 nM, respectively.
In the case of `CC(C)C[C@H](NC(=O)[C@@H](NC(=O)[C@H](CC(N)=O)NC(=O)[C@H](C)NC(=O)[C@H](CC(N)=O)NC(=O)[C@H](Cc1ccc(O)cc1)NC(=O)[C@H](Cc1ccccc1)NC(=O)[C@H](CCC(N)=O)NC(=O)[C@@H](N)CCCNC(=N)N)C(C)C)C(=O)O` [3102.1205] (H-RQFYNANVL-OH), the IC50 in test [1] stood at 37 nM; in test [3], 0.24 nM.
On the same counts, the results for `CC[C@H](C)[C@H](N)C(=O)N[C@@H](CC(C)C)C(=O)N[C@@H](CCSC)C(=O)N[C@H](C(=O)N[C@@H](Cc1ccccc1)C(=O)N[C@H](C(=O)N[C@@H](CO)C(=O)N[C@@H](CO)C(=O)N[C@@H](Cc1ccccc1)C(=O)O)[C@@H](C)CC)[C@@H](C)CC` [3102.1302] (H-ILMIFISSF-OH) are 87 nM and 12 nM.
Regarding `CSCC[C@H](NC(=O)[C@H](Cc1ccc(O)cc1)NC(=O)[C@H](CC(C)C)NC(=O)[C@@H](N)CC(C)C)C(=O)N[C@@H](Cc1ccccc1)C(=O)N1CCC[C@H]1C(=O)N[C@@H](CC(N)=O)C(=O)N[C@@H](CC(C)C)C(=O)N[C@@H](Cc1ccccc1)C(=O)O` [3102.1335] (H-LLYMFPNLF-OH), the IC50 in test [1] is 90 nM; in test [3] it was 0.11 nM.
In the case of `CC[C@H](C)[C@H](N)C(=O)N[C@H](C(=O)N[C@@H](Cc1ccc(O)cc1)C(=O)N[C@@H](CO)C(=O)N[C@@H](CC(C)C)C(=O)N[C@H](C(=O)N[C@H](C(=O)N[C@H](C(=O)N[C@H](C(=O)O)[C@@H](C)CC)[C@@H](C)O)[C@@H](C)O)C(C)C)C(C)C` [3102.0292] (H-IVYSLVTTI-OH), the half-maximal inhibitory concentration (IC50) came to 3.6 nM in test [1] and 16 nM in test [4].
Turning to `CC[C@H](C)[C@H](NC(=O)[C@@H](NC(=O)[C@@H]1CCCN1C(=O)[C@H](CC(C)C)NC(=O)[C@H](Cc1ccccc1)NC(=O)[C@H](CO)NC(=O)[C@H](CCSC)NC(=O)[C@@H](N)CCCCN)[C@@H](C)CC)C(=O)N[C@@H](Cc1ccccc1)C(=O)O` [3102.1291] (H-KMSFLPIIF-OH), the IC50 in test [1] was found to be 6.7 nM; in test [3], 0.08 nM.
In the case of `CC(C)[C@H](NC(=O)[C@H](Cc1ccccc1)NC(=O)[C@@H](NC(=O)[C@H](Cc1c[nH]cn1)NC(=O)[C@H](CCC(=O)O)NC(=O)[C@H](CCCNC(=N)N)NC(=O)[C@@H](NC(=O)[C@@H](N)CCCCN)C(C)C)[C@@H](C)O)C(=O)N[C@@H](CCCCN)C(=O)O` [3102.0071] (H-KVREHTFVK-OH), the IC50 in test [1] is 149 nM; in test [4], 2.1 nM.
Take `CC(C)C[C@H](NC(=O)[C@@H](NC(=O)[C@H](Cc1ccc(O)cc1)NC(=O)[C@H](CCCNC(=N)N)NC(=O)[C@H](CC(C)C)NC(=O)[C@H](CCC(=O)O)NC(=O)[C@H](Cc1ccc(O)cc1)NC(=O)[C@@H](NC(=O)[C@@H](N)C(C)C)[C@@H](C)O)[C@@H](C)O)C(=O)O` [3102.0294] (H-VTYELRYTL-OH): half-maximal inhibition in test [1] (IC50) was put at 12 nM.
As for `CC[C@H](C)[C@H](NC(=O)[C@@H](N)CCCCN)C(=O)N[C@@H](CC(N)=O)C(=O)N[C@@H](CC(N)=O)C(=O)N[C@@H](Cc1ccccc1)C(=O)N[C@@H](C)C(=O)N[C@@H](CC(N)=O)C(=O)N[C@@H](CCC(=O)O)C(=O)N[C@@H](Cc1ccccc1)C(=O)O` [3102.0456] (H-KINNFANEF-OH), in test [1], inhibition was half-maximal at 2.1 nM (IC50).
In turn, `CC[C@H](C)[C@H](NC(=O)[C@H](Cc1c[nH]cn1)NC(=O)[C@@H](NC(=O)[C@H](CO)NC(=O)[C@@H](NC(=O)[C@H](C)NC(=O)[C@H](CO)NC(=O)[C@H](CC(C)C)NC(=O)[C@@H](N)CO)C(C)C)C(C)C)C(=O)O` [3102.0349] (H-SLSAVSVHI-OH) had an IC50 in test [1] of 34 nM.
Consider `CC[C@H](C)[C@H](NC(=O)[C@H](CCCNC(=N)N)NC(=O)[C@H](CCC(N)=O)NC(=O)[C@H](C)NC(=O)[C@@H](NC(=O)[C@H](CC(N)=O)NC(=O)[C@H](Cc1ccccc1)NC(=O)[C@H](CC(C)C)NC(=O)[C@@H](N)CCCCN)[C@@H](C)CC)C(=O)O` [3102.0323] (H-KLFNIAQRI-OH), for which 1.6 nM corresponded to half-maximal inhibition in test [1] (IC50).
Turning to `CC[C@H](C)[C@H](N)C(=O)N[C@@H](CC(C)C)C(=O)N[C@@H](Cc1ccccc1)C(=O)N[C@@H](Cc1ccc(O)cc1)C(=O)N[C@@H](Cc1ccccc1)C(=O)N[C@@H](C)C(=O)N[C@@H](CC(N)=O)C(=O)NCC(=O)N[C@H](C(=O)O)[C@@H](C)CC` [3102.1147] (H-ILFYFANGI-OH), the IC50 in test [1] came out at 93 nM.
For the compound `CC(C)C[C@H](NC(=O)[C@@H](NC(=O)[C@@H](NC(=O)[C@@H](NC(=O)[C@@H](NC(=O)[C@@H](NC(=O)[C@H](CC(C)C)NC(=O)[C@@H](NC(=O)[C@@H](N)CCCCN)[C@@H](C)O)[C@@H](C)O)[C@@H](C)O)[C@@H](C)O)C(C)C)C(C)C)C(=O)O` [3102.0381] (H-KTLTTTVVL-OH), the IC50 in test [1] turned out to be 9.4 nM.
For the compound `CC[C@H](C)[C@H](NC(=O)[C@H](Cc1ccc(O)cc1)NC(=O)[C@H](CC(C)C)NC(=O)[C@H](CO)NC(=O)[C@@H](N)CCCCN)C(=O)N[C@H](C(=O)N[C@@H](CC(N)=O)C(=O)N[C@H](C(=O)N[C@@H](CC(C)C)C(=O)O)[C@@H](C)O)[C@@H](C)O` [3102.0459] (H-KSLYITNTL-OH), in test [1], the IC50 was determined as 0.52 nM.
In turn, `CC[C@H](C)[C@H](NC(=O)[C@@H](NC(=O)[C@@H](N)CCCCN)[C@@H](C)O)C(=O)N[C@@H](CC(N)=O)C(=O)N[C@@H](Cc1ccc(O)cc1)C(=O)N[C@@H](CO)C(=O)N[C@@H](Cc1ccccc1)C(=O)N[C@@H](Cc1ccccc1)C(=O)N[C@@H](CC(C)C)C(=O)O` [3102.0472] (H-KTINYSFFL-OH) yielded an IC50 in test [1] of 1 nM.
Regarding `CC[C@H](C)[C@H](NC(=O)[C@H](CCC(=O)O)NC(=O)[C@H](Cc1ccccc1)NC(=O)[C@H](CO)NC(=O)[C@@H](N)CCCNC(=N)N)C(=O)N[C@H](C(=O)N[C@@H](CC(N)=O)C(=O)N[C@H](C(=O)N[C@@H](CC(C)C)C(=O)O)C(C)C)[C@@H](C)CC` [3102.0322] (H-RSFEIINVL-OH), in test [1], 2.9 nM corresponded to half-maximal inhibition (IC50).
Take `CC[C@H](C)[C@H](NC(=O)[C@H](CCCCN)NC(=O)[C@H](CC(C)C)NC(=O)[C@@H](NC(=O)[C@H](Cc1ccc(O)cc1)NC(=O)[C@H](CC(N)=O)NC(=O)[C@H](CC(N)=O)NC(=O)[C@H](CC(C)C)NC(=O)[C@@H](N)CC(C)C)[C@@H](C)O)C(=O)O` [3102.0521] (H-LLNNYTLKI-OH): the IC50 in test [1] is 25 nM.
Compound `CC[C@H](C)[C@H](NC(=O)[C@@H](NC(=O)[C@H](CC(C)C)NC(=O)[C@@H](NC(=O)[C@@H](NC(=O)[C@H](CO)NC(=O)[C@H](CC(C)C)NC(=O)[C@H](CCSC)NC(=O)[C@@H](N)[C@@H](C)O)[C@@H](C)CC)[C@@H](C)CC)C(C)C)C(=O)O` [3102.0409] (H-TMLSIILVI-OH) gave an IC50 in test [1] of 16 nM.

Values taken from PMC2248166, “Quantitative peptide binding motifs for 19 human and mouse MHC class I molecules derived using positional scanning combinatorial peptide libraries” (Immunome Research, 2008).
